Tests used:
[1] = test system: Rb (771-928), FoxM1 (526-748), histone H1; assay: 32P-ATP kinase assay of protein complexes on substrates (FIG. 1A); type: biochemical; details: 0.5 μM complex, 20 μM substrate, 250 μM ATP, 30 minutes
Protocol: The phosphorylation activity of Cdk4 in various complexes was tested using different substrates.
The substrates used in the kinase assays were the C-terminal domain of the retinoblastoma protein (Rb (771-928); SEQ ID NO: 62), the transactivation domain of FoxM1 (FoxM1 (526-748); SEQ ID NO: 64), and full-length histone H1 (SEQ ID NO: 65).

[2] = Steady-state kinetic assays, initial rate of phosphorylation vs ATP concentration (FIGS. 1B and 1C); type: biochemical; details: summary of kinetic results, FIG. 1C

| Substance | phosphorylation activity toward substrates [1] | ATP substrate capture [2] |
| --- | --- | --- |
| Cdk4-CycD dimeric complex: Cdk4-CycD1 dimeric complex lacking p27; covers complexes (i) and (ii) | high phosphorylation activity specifically for Rb | – |
| engineered p27 with Y74E, Y88E, and Y89E-Cdk4-CycD1 trimeric complex: trimeric complex of p27 Y74E/Y88E/Y89E, Cdk4 and CycD1; covers complexes (vii) and (viii) | greater activity toward FoxM1 and histone 1 | enhances ATP substrate capture |

Source: patent US12264339B2, “Compositions and methods involving engineered P27” (THE REGENTS OF THE UNIVERSITY OF CALIFORNIA, priority 2018, dated 2025)
